Results on 31 compounds are retold here after ChEMBL document CHEMBL4371085, “Novel M4 positive allosteric modulators derived from questioning the role and impact of a presumed intramolecular hydrogen-bonding motif in β-amino carboxamide-harboring ligands” (Bioorg Med Chem Lett, 2019).

Data set [1] addresses T1, Muscarinic acetylcholine receptor M4 (Homo sapiens, UniProt P08173).
T1 sequence (P08173 whole entry): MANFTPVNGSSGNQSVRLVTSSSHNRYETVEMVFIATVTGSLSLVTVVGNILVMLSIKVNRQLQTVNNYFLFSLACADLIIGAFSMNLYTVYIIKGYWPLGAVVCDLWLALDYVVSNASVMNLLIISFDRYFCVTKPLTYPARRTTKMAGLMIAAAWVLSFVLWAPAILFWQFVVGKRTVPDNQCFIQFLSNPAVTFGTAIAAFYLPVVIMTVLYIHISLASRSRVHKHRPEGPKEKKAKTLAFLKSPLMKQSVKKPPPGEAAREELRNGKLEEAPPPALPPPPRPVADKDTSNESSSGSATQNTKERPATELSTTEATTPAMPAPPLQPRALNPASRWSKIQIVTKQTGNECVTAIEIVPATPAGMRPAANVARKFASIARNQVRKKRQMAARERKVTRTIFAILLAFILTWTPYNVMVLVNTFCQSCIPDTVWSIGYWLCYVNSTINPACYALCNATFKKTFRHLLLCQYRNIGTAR
Put plainly: Positive allosteric modulation of Gqi5-fused human M4 AChR assessed as increase in acetylcholine-induced calcium mobilization. Format: functional. Background: Calcium flux is commonly read through the fluorescence of an indicator in the cells.

The target in data set [2] is T2, Muscarinic acetylcholine receptor M4 (Homo sapiens) (UniProt P08173).
T2 sequence (whole entry): T1 sequence (P08173 whole entry)
Put plainly: Positive allosteric modulation of Gqi5-fused human M4 AChR assessed as increase in acetylcholine-induced calcium mobilization relative to acetylcholine alone. Format: functional.

Data set [3] is described as follows: Fraction unbound in rat plasma. Format: ADME, cell-free.
The subject of data set [4] is Cytochrome P450. The data set can be described thus: Inhibition of CYP450 (unknown origin). Format: ADME, protein assay. Conditions: human; call rule not given here.
Data set [5] deals with P-gp (ABCB1) (Homo sapiens, UniProt P08183). Put plainly: Substrate activity at human P-gp assessed as efflux ratio. Format: ADME. Conditions: not told.
The nature of data set [6]: Brain to plasma partition coefficient, Kp of the compound in rat. Format: ADME, cell-free.
For data set [7], the target named is T3, Cytochrome P450 1A2 (Homo sapiens, UniProt P05177).
T3 sequence (P05177 whole entry): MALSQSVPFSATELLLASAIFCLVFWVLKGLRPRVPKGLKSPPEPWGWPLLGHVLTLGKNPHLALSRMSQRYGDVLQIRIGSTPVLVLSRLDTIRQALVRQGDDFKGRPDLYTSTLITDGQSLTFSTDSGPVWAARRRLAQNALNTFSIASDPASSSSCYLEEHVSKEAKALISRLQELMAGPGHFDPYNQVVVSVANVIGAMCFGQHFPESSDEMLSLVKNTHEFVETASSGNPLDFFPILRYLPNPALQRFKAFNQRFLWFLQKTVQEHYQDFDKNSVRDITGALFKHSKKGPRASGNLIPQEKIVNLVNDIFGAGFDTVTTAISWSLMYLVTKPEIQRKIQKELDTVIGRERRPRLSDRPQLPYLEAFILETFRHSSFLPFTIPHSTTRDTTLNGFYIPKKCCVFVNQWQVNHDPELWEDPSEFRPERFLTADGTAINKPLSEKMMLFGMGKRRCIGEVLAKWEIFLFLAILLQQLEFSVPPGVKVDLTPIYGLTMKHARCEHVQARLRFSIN
The data set can be described thus: Inhibition of CYP1A2 (unknown origin). Format: ADME.

For data set [8], the target named is Cytochrome P450 2C9 (Homo sapiens, UniProt P11712). Put plainly: Inhibition of CYP2C9 (unknown origin). Format: ADME.
Sequence of Cytochrome P450 2C9 (P11712 whole entry): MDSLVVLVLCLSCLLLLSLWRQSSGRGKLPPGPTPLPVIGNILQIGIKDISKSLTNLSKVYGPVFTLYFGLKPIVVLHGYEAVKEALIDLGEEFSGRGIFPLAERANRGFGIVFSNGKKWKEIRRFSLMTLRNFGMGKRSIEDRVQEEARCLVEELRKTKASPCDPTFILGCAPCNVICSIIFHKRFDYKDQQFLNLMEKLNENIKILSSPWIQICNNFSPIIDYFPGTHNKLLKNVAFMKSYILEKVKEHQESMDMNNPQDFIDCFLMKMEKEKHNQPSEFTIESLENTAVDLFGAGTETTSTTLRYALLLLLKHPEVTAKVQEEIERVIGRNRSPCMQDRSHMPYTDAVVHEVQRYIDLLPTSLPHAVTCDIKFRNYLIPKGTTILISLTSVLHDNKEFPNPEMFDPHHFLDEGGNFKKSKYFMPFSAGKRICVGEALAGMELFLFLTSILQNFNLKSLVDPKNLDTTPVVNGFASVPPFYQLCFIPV

Sequence of P-gp (ABCB1) (P08183 whole entry): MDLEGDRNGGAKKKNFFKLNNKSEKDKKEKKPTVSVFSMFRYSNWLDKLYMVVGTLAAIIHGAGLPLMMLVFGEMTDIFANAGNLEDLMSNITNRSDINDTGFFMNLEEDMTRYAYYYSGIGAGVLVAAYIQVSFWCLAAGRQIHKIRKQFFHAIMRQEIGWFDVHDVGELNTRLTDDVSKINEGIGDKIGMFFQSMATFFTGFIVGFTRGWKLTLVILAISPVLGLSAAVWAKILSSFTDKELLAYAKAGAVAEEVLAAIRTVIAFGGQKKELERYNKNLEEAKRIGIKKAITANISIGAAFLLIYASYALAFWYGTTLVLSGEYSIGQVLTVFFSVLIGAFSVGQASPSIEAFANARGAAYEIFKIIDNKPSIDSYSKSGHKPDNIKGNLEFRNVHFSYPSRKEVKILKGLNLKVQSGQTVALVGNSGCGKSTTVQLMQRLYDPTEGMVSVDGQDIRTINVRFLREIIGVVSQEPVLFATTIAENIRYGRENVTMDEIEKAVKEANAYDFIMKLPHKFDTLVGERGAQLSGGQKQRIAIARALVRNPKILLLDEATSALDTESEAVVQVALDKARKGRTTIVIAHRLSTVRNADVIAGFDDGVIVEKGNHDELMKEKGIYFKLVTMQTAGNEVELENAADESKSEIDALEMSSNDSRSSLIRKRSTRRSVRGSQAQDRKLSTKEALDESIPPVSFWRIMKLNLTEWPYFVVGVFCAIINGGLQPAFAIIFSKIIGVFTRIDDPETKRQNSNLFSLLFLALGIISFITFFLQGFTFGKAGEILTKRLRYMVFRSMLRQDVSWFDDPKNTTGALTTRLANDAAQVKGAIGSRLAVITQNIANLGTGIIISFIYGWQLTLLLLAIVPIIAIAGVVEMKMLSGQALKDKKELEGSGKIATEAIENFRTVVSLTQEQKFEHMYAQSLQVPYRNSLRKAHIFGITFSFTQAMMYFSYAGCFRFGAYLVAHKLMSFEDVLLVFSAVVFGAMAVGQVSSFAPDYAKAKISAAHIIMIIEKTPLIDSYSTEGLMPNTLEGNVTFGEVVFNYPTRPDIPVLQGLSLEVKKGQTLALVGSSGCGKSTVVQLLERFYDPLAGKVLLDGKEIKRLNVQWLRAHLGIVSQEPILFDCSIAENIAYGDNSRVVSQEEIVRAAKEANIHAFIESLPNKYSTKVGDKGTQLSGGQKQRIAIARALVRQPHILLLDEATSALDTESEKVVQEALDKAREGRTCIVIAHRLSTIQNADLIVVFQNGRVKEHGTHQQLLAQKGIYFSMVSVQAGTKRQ

With `Cc1cc(C)c2c(n1)sc1c(NCC3CCCC3)n[nH]c12`, in data set [1], the EC50 (in general, the concentration at which the effect is half-maximal) is 3.8 µM. Moreover, the Emax (usually the size of the effect at its maximum, as opposed to the concentration needed) in data set [2] came to 65%.

Consider `Cc1nnc2sc3c(NCC4CCCO4)nn(C)c3c2c1C` (stereo unspecified), for which the EC50 in data set [1] came out at 0.18 µM. In data set [2], the Emax was found to be 102%.

As to `Cc1cc(C)c2c(n1)sc1c(NCc3ccco3)n[nH]c12`, in data set [1], the EC50 was found to be 1.2 µM. In addition, the Emax in data set [2] came out at 76%.

On to `CSc1ccc(CNC(=O)c2sc3nc(C)cc(C)c3c2C)cc1`, for which the EC50 in data set [1] stood at 1.5 µM. Besides, the fraction unbound (commonly free concentration divided by total concentration) in data set [3] was under 0.005. For the same compound, in data set [4], the “inhibition (INH)” value was “Active”. For the same compound, in data set [2], the Emax is 45%.

As for `COc1ccc(CNC(=O)c2sc3nnc(C)c(C)c3c2C)cc1F`, the concentration giving a half-maximal response (EC50) in data set [1] turned out to be 2.1 µM. This compound also had a fraction unbound in data set [3] of under 0.005. For the same compound, in data set [4], the “inhibition (INH)” value is on record as “Active”. Besides, the Emax in data set [2] was 56%.

`Cc1cc(C)c2c(n1)sc1c(NCc3ccccc3)n[nH]c12`: the EC50 in data set [1] amounted to 1 µM. The Emax in data set [2] was 66%.

As to `COc1ccc(CNC(=O)c2cc3c(C)cc(C)nc3s2)cc1`, the EC50 in data set [1] was determined as 5.1 µM. The compound further registered a fraction unbound in data set [3] of under 0.005. Besides, in data set [4], the “inhibition (INH)” value is “Active”. Besides, in data set [2], the Emax came out at 53%.

Turning to `Cc1nnc2sc(C(=O)NC3COC3)c(C3CC3)c2c1C`, the EC50 in data set [1] was over 10 µM. This compound also showed a fraction unbound in data set [3] of under 0.005. Further, in data set [4], the “inhibition (INH)” value is given as “Active”. The Emax in data set [2] was determined as 38%.

For the compound `Cc1nc2sc3c(NCc4ccc(F)cc4)nn(C)c3c2c(C)c1Cl`, in data set [1], the EC50 was over 10 µM. Further, the Emax in data set [2] stood at 56%.

Consider `Cc1cc(C)c2c(n1)sc1c(NCc3ccc(F)cc3)n[nH]c12`, for which the EC50 in data set [1] was found to be 1.1 µM. For the same compound, the Emax in data set [2] stood at 62%.

Turning to `COc1ccc(CNC(=O)c2cc3c(C)c(C)nnc3s2)cc1F`, the EC50 in data set [1] is 1.5 µM. Besides, in data set [3], the fraction unbound is under 0.005. Moreover, in data set [4], the “inhibition (INH)” value is “Active”. Moreover, the Emax in data set [2] amounted to 66%.

Take `Cc1nnc2sc3c(NCc4ccc(S(C)(=O)=O)c(F)c4)nn(C)c3c2c1C`: the EC50 in data set [1] was determined as 0.16 µM. Further, the Fu in data set [3] is listed as 0.05. The efflux ratio (in general, a quotient of directional permeabilities that is used to spot active efflux) in data set [5] was over 10. This compound also came in with an INH in data set [4] of over 30 µM. Besides, the Emax in data set [2] was 58%.

Take `Cc1cc(C)c2c(n1)sc1c(NCC3CC3)n[nH]c12`: the EC50 in data set [1] turned out to be 2 µM. Also, the Emax in data set [2] is 67%.

As for `CCc1c(C(=O)NCc2ccc(OC)c(F)c2)sc2nnc(C)c(C)c12`, the EC50 in data set [1] came out at 2.2 µM. In data set [3], this compound displayed a fraction unbound of under 0.005. In addition, the “inhibition (INH)” value in data set [4] is listed as “Active”. In data set [2], the Emax worked out at 73%.

As to `COc1ccc(CNC(=O)c2sc3nc(C)cc(C)c3c2C)cc1`, in data set [1], the EC50 amounted to 2.7 µM. Further, the fraction unbound in data set [3] was under 0.005. Moreover, in data set [4], the “inhibition (INH)” value is “Active”. Also, the Emax in data set [2] amounted to 49%.

In the case of `COc1ccc(CNc2nn(C)c3c2sc2nc(C)c(Cl)c(C)c23)cc1`, the concentration giving a half-maximal response (EC50) in data set [1] is over 10 µM. Moreover, the Emax in data set [2] was found to be 51%.

As for `Cc1cc(C)c2c(C)c(C(=O)NCc3ccc(S(C)(=O)=O)cc3)sc2n1`, in data set [1], the EC50 came out at 6.4 µM. In addition, in data set [3], the fraction unbound is under 0.005. The “inhibition (INH)” value in data set [4] is listed as “Active”. In data set [2], the Emax amounted to 58%.

Turning to `Cc1cc(C)c2c(C)c(C(=O)NCc3ccc4c(c3)CCO4)sc2n1`, in data set [1], the EC50 was 5.9 µM. In data set [3], the fraction unbound is under 0.005. Further, the “inhibition (INH)” value in data set [4] was “Active”. For the same compound, the Emax in data set [2] is 50%.

In the case of `COc1ccc(CNc2nn(C)c3c2sc2nnc(C)c(C)c23)cc1`, in data set [1], the EC50 was 0.04 µM. Besides, the Fu in data set [3] turned out to be 0.02. Besides, in data set [6], the Kp – broadly, tissue or fluid exposure divided by exposure in the circulation – stood at 0.25. For the same compound, the INH in data set [4] is over 30 µM. Besides, the Emax in data set [2] was determined as 79%.

In the case of `Cc1nnc2sc3c(NCc4ccc5c(c4)OCCO5)nn(C)c3c2c1C`, in data set [1], the EC50 was 0.06 µM. Further, the Emax in data set [2] stood at 91%.

Turning to `Cc1nc2sc3c(NCc4ccco4)nn(C)c3c2c(C)c1Cl`, the EC50 in data set [1] was determined as 0.12 µM. The compound also returned a Fu in data set [3] of under 0.001. In addition, the IC50 (as a rule, the concentration at which inhibition is half-maximal) in data set [7] is under 0.1 µM; in data set [8], 1 µM. Further, the Emax in data set [2] was determined as 59%.

For the compound `COc1ccc(CNc2n[nH]c3c2sc2nc(C)cc(C)c23)cc1`, the EC50 in data set [1] came to 2.2 µM. The compound further yielded a Fu in data set [3] of under 0.002. Further, the INH in data set [4] was under 5 µM. The Emax in data set [2] was 67%.

In the case of `COc1ccc(CNC(=O)c2sc3nnc(C)c(C)c3c2C2CC2)cc1F`, the EC50 in data set [1] came to 5.6 µM. Also, the fraction unbound in data set [3] is under 0.005. The “inhibition (INH)” value in data set [4] is reported as “Active”. Moreover, the Emax in data set [2] stood at 35%.

Consider `CCc1c(C(=O)NCc2ccc(S(C)(=O)=O)cc2)sc2nc(C)cc(C)c12`, for which the EC50 in data set [1] stood at 2.7 µM. The compound also had a fraction unbound in data set [3] of under 0.005. For the same compound, the “inhibition (INH)” value in data set [4] is reported as “Active”. For the same compound, the Emax in data set [2] amounted to 57%.

`Cc1nnc2sc3c(NCC4CC4)nn(C)c3c2c1C`: in data set [1], the EC50 was 0.62 µM. In addition, the Emax in data set [2] stood at 84%.

For the compound `COc1ccc(CNC(=O)c2sc3nnc(C)c(C)c3c2N)cc1F`, in data set [2], the Emax is 75%.

Regarding `Cc1cc(C)c2c(C)c(C(=O)NCc3ccc4c(c3)OCCO4)sc2n1`, the EC50 in data set [1] is 2.1 µM. In data set [3], this compound registered a fraction unbound of under 0.005. For the same compound, in data set [4], the “inhibition (INH)” value is reported as “Active”. Also, the Emax in data set [2] is 56%.

With `Cc1nnc2sc3c(NCc4ccco4)nn(C)c3c2c1C`, the EC50 in data set [1] came out at 0.69 µM. Moreover, in data set [2], the Emax was 91%.

For the compound `Cc1nc2sc3c(NCC4CC4)nn(C)c3c2c(C)c1Cl`, the EC50 in data set [1] came to 0.23 µM. In data set [3], this compound displayed a Fu of under 0.001. Also, the IC50 in data set [7] was under 0.1 µM; in data set [8] it was 1 µM. For the same compound, the Emax in data set [2] stood at 67%.

On to `Cc1cc(C)c2c(C)c(C(=O)NCc3ccc(OC(F)(F)F)cc3)sc2n1`, for which the EC50 in data set [1] was over 10 µM. Besides, in data set [3], the fraction unbound was under 0.005. Also, the “inhibition (INH)” value in data set [4] is recorded as “Active”. Besides, in data set [2], the Emax was determined as 29%.

For `Cc1nc2sc3c(NCc4ccccc4)nn(C)c3c2c(C)c1Cl`, in data set [1], the EC50 was over 10 µM. Also, the Emax in data set [2] was found to be 39%.
